This is an account of results in ChEMBL document CHEMBL1201862, “PubChem BioAssay data set” (2004).

Active and inactive are the calls of the source. Rule as the data show it, for most assays here: actives have a measured EC50 and inactives only a lower limit.

One experiment deals with T1, Protein skinhead-1 (Caenorhabditis elegans, UniProt P34707).
T1 sequence (P34707 whole entry): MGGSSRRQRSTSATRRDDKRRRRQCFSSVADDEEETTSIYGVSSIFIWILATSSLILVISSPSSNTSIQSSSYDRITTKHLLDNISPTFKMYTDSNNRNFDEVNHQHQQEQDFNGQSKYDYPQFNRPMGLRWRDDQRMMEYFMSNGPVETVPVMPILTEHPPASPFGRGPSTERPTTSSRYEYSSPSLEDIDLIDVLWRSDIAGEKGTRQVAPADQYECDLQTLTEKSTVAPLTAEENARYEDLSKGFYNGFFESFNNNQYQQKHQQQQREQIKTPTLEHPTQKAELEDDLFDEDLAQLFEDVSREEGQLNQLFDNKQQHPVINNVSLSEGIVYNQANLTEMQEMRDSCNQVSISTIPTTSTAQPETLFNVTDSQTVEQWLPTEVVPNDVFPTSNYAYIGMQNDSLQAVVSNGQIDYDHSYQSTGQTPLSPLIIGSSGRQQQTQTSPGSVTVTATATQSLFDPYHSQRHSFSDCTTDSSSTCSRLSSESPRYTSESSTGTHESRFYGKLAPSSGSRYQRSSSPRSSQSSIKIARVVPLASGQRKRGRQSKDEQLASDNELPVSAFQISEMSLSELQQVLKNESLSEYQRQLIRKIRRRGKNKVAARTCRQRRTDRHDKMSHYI
Format: functional.

A further experiment deals with H4. Put plainly: Luminescence Cell-Based Dose Response HTS to Identify Activators of 5'UTR Stem-Loop Driven Prion Protein mRNA Translation in H4 Neuroglioblastoma Cells. [Related pubchem assays: 1829 (Project Summary), 1814 (Primary HTS)]. Format: functional. As to conditions: Homo sapiens.
Experiment [1] in a line: Luminescence Cell-Based Dose Response HTS to Identify Activators of Luciferase Translation or Activity in H4 […] Cells. [Related pubchem assays: 1829 (Project Summary), 1814 (Primary HTS)]. Format: functional.
Experiment [2] deals with T2, RNA-binding protein pos-1 (Caenorhabditis elegans, UniProt G5EF15).
T2 sequence (G5EF15 whole entry): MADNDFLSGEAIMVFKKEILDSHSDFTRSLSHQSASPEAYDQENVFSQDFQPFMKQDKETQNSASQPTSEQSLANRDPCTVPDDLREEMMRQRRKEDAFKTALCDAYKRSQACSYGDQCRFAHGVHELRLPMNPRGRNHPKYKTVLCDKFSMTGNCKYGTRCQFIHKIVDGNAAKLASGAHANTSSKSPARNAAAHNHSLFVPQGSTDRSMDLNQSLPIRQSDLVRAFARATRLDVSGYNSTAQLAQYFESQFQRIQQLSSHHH
As to the kind of experiment: disruptors of C. elegans POS-1 RNA interaction – biochemical, fluorescence polarization, dose response (AID 1964). (In general: In fluorescence polarisation assays a small probe gives low polarisation when free and higher when bound to something large.)

In experiment [3] the target is T3, Zinc finger protein mex-5 (Caenorhabditis elegans, UniProt Q9XUB2).
T3 sequence (Q9XUB2 whole entry): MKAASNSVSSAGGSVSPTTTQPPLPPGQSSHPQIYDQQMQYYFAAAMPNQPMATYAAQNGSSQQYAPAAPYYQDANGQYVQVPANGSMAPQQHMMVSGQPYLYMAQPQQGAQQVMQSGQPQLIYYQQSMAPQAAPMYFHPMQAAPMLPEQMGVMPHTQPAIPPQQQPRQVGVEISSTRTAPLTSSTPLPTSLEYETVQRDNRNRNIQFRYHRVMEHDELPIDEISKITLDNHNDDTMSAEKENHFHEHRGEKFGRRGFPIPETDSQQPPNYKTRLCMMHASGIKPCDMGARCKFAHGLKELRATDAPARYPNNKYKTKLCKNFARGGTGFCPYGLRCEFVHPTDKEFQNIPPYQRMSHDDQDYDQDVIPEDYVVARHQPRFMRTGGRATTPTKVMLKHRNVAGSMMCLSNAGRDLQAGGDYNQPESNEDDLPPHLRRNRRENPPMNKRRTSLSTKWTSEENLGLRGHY
As to the kind of experiment: potency of MEX-5 RNA-binding blockers – biochemical, C. elegans, fluorescence polarization, dose response (AID 1960).

Experiment [4] has as its target T4, Replicative DNA helicase DnaB (Mycobacterium tuberculosis, UniProt P9WMR3).
T4 sequence (P9WMR3 whole entry): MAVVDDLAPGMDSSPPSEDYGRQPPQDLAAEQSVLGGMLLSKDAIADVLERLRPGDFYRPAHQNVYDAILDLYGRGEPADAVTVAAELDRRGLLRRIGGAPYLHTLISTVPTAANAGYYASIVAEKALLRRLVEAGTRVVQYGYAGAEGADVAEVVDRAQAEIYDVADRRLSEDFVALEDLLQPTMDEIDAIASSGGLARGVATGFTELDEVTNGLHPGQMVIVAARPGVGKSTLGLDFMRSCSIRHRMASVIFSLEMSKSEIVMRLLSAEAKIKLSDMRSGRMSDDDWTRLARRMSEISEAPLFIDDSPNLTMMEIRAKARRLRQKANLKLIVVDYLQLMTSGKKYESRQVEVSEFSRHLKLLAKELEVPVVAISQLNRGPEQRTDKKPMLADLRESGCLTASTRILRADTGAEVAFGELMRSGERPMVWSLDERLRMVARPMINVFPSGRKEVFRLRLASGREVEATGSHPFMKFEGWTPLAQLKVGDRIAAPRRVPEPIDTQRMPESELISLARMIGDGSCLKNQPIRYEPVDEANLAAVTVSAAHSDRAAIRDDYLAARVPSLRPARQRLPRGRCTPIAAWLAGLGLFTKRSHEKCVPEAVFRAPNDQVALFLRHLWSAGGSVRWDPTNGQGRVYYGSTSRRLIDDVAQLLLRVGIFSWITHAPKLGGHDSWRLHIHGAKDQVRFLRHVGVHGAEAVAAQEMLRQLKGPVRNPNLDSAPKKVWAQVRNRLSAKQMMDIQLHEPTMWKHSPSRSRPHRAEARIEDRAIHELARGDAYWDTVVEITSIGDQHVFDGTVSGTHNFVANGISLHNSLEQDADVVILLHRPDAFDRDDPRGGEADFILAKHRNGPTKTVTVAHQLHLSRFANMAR
As to the kind of experiment: DnaB intein splicing inhibitors, dose response, biochemical, cell-free fluorescence (AID 449749). It is filed as functional.

The target in another experiment is T5, Protein RecA (Mycobacterium tuberculosis, UniProt P9WHJ3).
T5 sequence (P9WHJ3 whole entry): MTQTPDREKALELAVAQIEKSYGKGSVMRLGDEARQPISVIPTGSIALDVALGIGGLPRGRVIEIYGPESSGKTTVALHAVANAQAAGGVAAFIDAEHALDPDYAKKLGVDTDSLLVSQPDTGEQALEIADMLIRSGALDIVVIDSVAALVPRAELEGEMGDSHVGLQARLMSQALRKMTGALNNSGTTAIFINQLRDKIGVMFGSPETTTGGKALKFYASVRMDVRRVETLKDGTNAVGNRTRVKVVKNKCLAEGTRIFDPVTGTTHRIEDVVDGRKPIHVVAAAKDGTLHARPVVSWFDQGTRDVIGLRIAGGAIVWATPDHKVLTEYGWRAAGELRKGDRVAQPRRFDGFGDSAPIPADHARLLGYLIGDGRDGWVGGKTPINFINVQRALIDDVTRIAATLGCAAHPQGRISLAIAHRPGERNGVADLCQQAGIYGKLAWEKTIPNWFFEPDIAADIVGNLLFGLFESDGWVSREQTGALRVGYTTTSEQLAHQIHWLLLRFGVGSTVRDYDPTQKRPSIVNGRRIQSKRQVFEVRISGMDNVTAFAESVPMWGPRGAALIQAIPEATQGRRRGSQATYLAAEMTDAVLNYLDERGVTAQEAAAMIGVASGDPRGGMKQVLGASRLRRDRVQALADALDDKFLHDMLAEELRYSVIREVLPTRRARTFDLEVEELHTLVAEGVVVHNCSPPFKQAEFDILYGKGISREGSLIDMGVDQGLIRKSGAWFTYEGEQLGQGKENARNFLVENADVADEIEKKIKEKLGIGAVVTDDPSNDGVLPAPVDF
Put plainly: Fluorescence Cell-Free Homogeneous Dose Retest to Identify Inhibitors of RecA-Intein Splicing Activity. [Related pubchem assays (depositor defined):AID2097, AID2223, AID489010, AID492950]. It is filed as functional.

Experiment [5] addresses T6, Carboxy-terminal domain RNA polymerase II polypeptide A small phosphatase 1 (Homo sapiens, UniProt Q9GZU7).
T6 sequence (Q9GZU7 whole entry): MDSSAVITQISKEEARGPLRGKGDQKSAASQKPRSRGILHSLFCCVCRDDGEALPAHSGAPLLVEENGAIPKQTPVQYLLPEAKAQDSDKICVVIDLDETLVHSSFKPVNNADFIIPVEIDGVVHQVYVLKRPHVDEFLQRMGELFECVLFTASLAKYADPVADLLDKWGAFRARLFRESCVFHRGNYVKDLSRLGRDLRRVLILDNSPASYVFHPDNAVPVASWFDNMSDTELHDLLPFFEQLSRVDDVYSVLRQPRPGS
Put plainly: CTDSP1 inhibitors, concentration-response, biochemical, absorbance readout, ultra-high-throughput screen actives (AID 540297). It is filed as functional.

Usually IC50 stands for the concentration that inhibits the measured activity by half. For orientation: EC50 means the concentration giving half of the maximal effect. By AC50 is commonly meant the concentration giving half of the maximal activity seen.

For the molecule `CN(C)S(=O)(=O)c1ccc(N2CCCC2)c(C(=O)NCc2cccc(C(F)(F)F)c2)c1`, the IC50 on Protein skinhead-1 was > 100 µM (inactive). `c1ccc(-c2noc(CC3CCCCC3)n2)cc1`: the EC50 (in the experiment on H4; in experiment [1]) was > 120 µM (not active) each time. For `O=C1NC(=O)N(CCc2ccc(F)cc2)C(=O)/C1=C/NNC(=O)c1ccccc1`, the EC50 in experiment [2] and in experiment [3] was > 300 µM (not active) throughout. Turning to `O=C(NCCC1=CCCCC1)c1cnc2n(c1=O)CCS2`, the EC50 in the experiment with H4 is 56.6 µM (active); in experiment [1], 39.9 µM (active).

Turning to `COc1ccc(OC)c(C2C(C(=O)c3ccco3)=C(O)C(=O)N2CCN2CCOCC2)c1` (centres undefined), the EC50 in experiment [2] and in experiment [3] was > 300 µM (not active) in each case. `CC(C)Cn1c(C(C)C)nc([N+](=O)[O-])c1S(=O)(=O)c1ccc(F)cc1`: in experiment [4], the AC50 is 13.9 µM (active). The EC50 at Protein RecA was 9.69 µM (active). As for `Fc1ccc(COc2ccc(-c3nnco3)cc2)c(Cl)c1`, the IC50 at Protein skinhead-1 was 6.56 µM (active). On to `O=C(Nc1ccc2c(c1)oc1ccccc12)N1CCOCC1`, for which the EC50 in the experiment with H4 is > 120 µM (not active); in experiment [1] it was 1.32 µM (active). `Cc1cc(C)nc(N2C(=O)CC(C(C)c3ccccc3)C2=O)n1` (centres undefined): the IC50 at Protein skinhead-1 is > 100 µM (inactive).

Turning to `Fc1ccc(CSc2nc3cc(Br)c[nH]c-3n2)cc1`, the IC50 in experiment [5] is 9.63 µM (active). The same measure, in the same setting: with `CC(C)c1ccc2oc(-c3ccc(NC(=O)c4nnc[nH]4)cc3)nc2c1` the figure was 6.65 µM (active). For `Clc1ccc(OCCCc2nc(-c3ccncc3)no2)c(Cl)c1`, the IC50 at Protein skinhead-1 is 20.4 µM (active). Consider `O=C(CN1C(=O)N/C(=C\c2ccccc2OCc2ccc(C(=O)O)cc2)C1=O)Nc1ccccc1F`, for which the IC50 in experiment [5] was 7.13 µM (active).

In the case of `O=C(/C=C/c1ccccc1)c1ccc2c3c(cccc13)CC2`, the AC50 in experiment [4] is > 380 µM (inactive). For the same molecule, the EC50 on Protein RecA is 11.4 µM (active). Regarding `O=C(Nc1cccc(-c2nc3ccccc3s2)c1)c1cc(=O)c2ccccc2o1`, the IC50 in experiment [5] was 5.07 µM (active).

Consider `Cc1nnc(SCC2=C(C(=O)O)N3C(=O)C(NC(=O)COc4ccccc4)C3SC2)s1` (centres undefined), for which the concentration for half-maximal inhibition (IC50) in experiment [5] is 8.97 µM (active). Still for that read-out and setting: with `N#Cc1c(SCC(=O)Nc2cccc(C(F)(F)F)c2)sc2c(O)cc(O)nc12` the figure was 10.4 µM (active).

Turning to `COC(=O)[C@H](CCSC)NC(=O)NC1CCN(Cc2ccccc2)CC1`, the EC50 in experiment [2] and in experiment [3] was > 300 µM (not active) in each case.

Turning to `Cc1nonc1OC(C)CNc1ccc([N+](=O)[O-])cc1` (centres undefined), the IC50 on Protein skinhead-1 was > 100 µM (inactive). For `CC1=NN(c2ccccc2)C(=O)/C1=C/c1cn(C)c2ccccc12`, the AC50 in experiment [4] was 57.1 µM (active). Further, the EC50 at Protein RecA is 39 µM (active). As for `CCOC(=O)N1CC=C2C(C#N)=C(N)C(C#N)(C#N)[C@H](c3ccsc3)[C@H]2C1`, the EC50 in experiment [2] is 78.8 µM (active); in experiment [3], 58.7 µM (active). For `NC(=O)CC(NC(=O)Cc1cccc2ccccc12)c1ccc(N2CCC(N3CCCCC3)CC2)c([N+](=O)[O-])c1` (centres undefined), the IC50 on Protein skinhead-1 was > 100 µM (inactive). Turning to `CCOc1ccc(Cl)cc1C(c1c(C)n[nH]c1O)c1c(C)n[nH]c1O`, the AC50 in experiment [4] was 0.551 µM (active). Besides, on Protein RecA, the EC50 is 0.221 µM (active).

For the molecule `CCCn1c(=O)[nH]c(=O)c2c1nc(-c1ccccc1)n2CCN1CCOCC1`, the IC50 in experiment [5] is 47.8 µM (active). For `Cc1ccc(/N=C/c2sc(O)c3ccccc23)c(C)c1`, the EC50 in experiment [2] is > 300 µM (not active); in experiment [3] it was > 300 µM (inconclusive). For `Cc1[nH]c2ccccc2c1/C=N/NC(=S)NC(C)C` the same measures were > 300 µM (not active) and > 300 µM (not active). For `CC(=O)Oc1oc(-c2ccccc2)nc1/C=N/c1ccc(N(C)C)cc1` the same measures were > 300 µM (not active) and > 300 µM (not active). As to `O=C(O)COc1ccc(Br)cc1/C=N/O`, the IC50 in experiment [5] was 8.03 µM (active). As to `CC1=C(C)/C(=N\OC(=O)/C=C/c2ccccc2)C=CC1=O`, in experiment [4], the AC50 is > 380 µM (inactive). Moreover, the EC50 at Protein RecA was 0.532 µM (active).
